Measured values published in patent US11246961B2, “Engineered scaffolds for vascularized tissue repair” (The Regents of the University of California, priority 2016, dated 2022).

Key:
[1] = system: platelets; test: platelets attachment assay on ligand treated culture surfaces; type: cell-based; settings: 16 hours
Excerpt: Ligands LXW7, LXY30, and LLP2A were synthesized as in U.S. Pat. No. 9,073,974. Biotinylated LXW7 (LXW7-bio) and biotinylated GRGD (GRGD-bio) (SEQ ID NO: 1) were synthesized using established solid phase peptide synthesis protocols (Xiao et al. (2010) Mol Cancer Therapeutics 9:2714). Peptide-bio was designed to have biotin attached to the side chain of Lys, with two hydrophilic linkers between peptide and Lys (biotin). To modify culture surface with ligands, target culture wells in a 24-well plate were coated with 500 μL of 20 μg/mL Avidin (Thermo Fisher Scientific), and incubated for 1 hour at 37° C. Avidin coated wells were rinsed three times with DPBS and were treated with 500 μL molar equivalents (2 μM) of D-biotin (Thermo Fisher Scientific), LXW7-bio, or GRGD-bio (SEQ ID NO: 1). After 1 hour, the wells were washed three times with DPBS and blocked with 1% bovine serum albumin (BSA; Thermo Fisher Scientific) for 1 hour. After the wells were rinsed three times with DPBS, for cell attachment assay, 5×10^4 HCAECs and THP-1 monocytes suspended in the respective maintenance medium were added to the wells and incubated for 10 minutes or 16 hours at 37° C., 5% CO2, respectively. […] Five images were randomly taken from each sample and quantification of images was performed using the Image J software (NIH).

[2] = system: ERK1/2; test: Western-blot analysis, phosphorylation of ERK1/2; type: cell-based, human; settings: LXW7 treated surface, 96 hours, vs D-biotin
Description: The 100-mm dishes from Example 2 were treated with Avidin followed by LXW7-bio or D-biotin as described in Example 5. 8×10^5 HCAECs were seeded per dish and cultured in EGM-2 media for 4 days. Cells were lysed using Extraction Kit (Thermo Fisher Scientific) and protein concentrations were determined using BCA Protein Assay (Thermo Fisher Scientific). Fifteen μg of each sample were loaded and separated using a 4-12% Bis-Tris NuPAGE gel (Thermo Fisher Scientific) and transferred to a nitrocellulose membrane. The membrane was blocked in 5% BSA in TBST (Tris-buffered saline with 0.5% Tween-20), and subsequently incubated with primary antibodies anti-VEGF Receptor 2, anti-Phospho-VEGF Receptor 2, anti-p44/42 MAPK (Erk1/2) and anti-Phospho-p44/42 MAPK (Erk1/2) (Thr202/Tyr204), all purchased from Cell Signaling Technologies, in 1% BSA overnight at 4° C. After washing three times with TBST, the membranes were incubated with respective horseradish peroxidase-conjugated secondary antibodies in 1% non-fat dry milk in TBST (BioRad) for 1 hour at room temperature. After washing, the protein bands were visualized using West Dura Substrate (Thermo Fisher Scientific) and quantified using Image J software.

[3] = system: platelets; test: flow cytometry ligand-cell binding, platelets; settings: biotinylated ligand 1 μM
Description: (§1) FIG. 10 presents flow cytometry data from an assay of binding affinity of LXW7 and GRGD (SEQ ID NO: 1) to different cell types. Tests included EPCs/ECs from different sources, including HECFCs (A), HCAECs (B), HMVECs (C), and THP-1 monocytes (D), Platelets (E), as well as K562 cells engineered to highly express αvβ3 (αvβ3-K562, F), and αIIbβ3 (αIIbβ3-K562, G). Cells were incubated with the LXW7-bio, GRGD-bio (SEQ ID NO: 1), or D-Biotin peptide and subsequently incubated with streptavidin-phycoerythrin. Flow cytometry analysis was performed to determine the binding affinity of the ligands. Samples treated with D-biotin were used as negative controls.
(§2) LXW7-bio (1 μM) was incubated with 3×10^5 HECFCs, HCAECs, HMVECs, αvβ3-K562 and αIIbβ3-K562 cells and THP-1 monocytes and 1×10^8 platelets in binding buffer (HEPES containing 10% FBS) on ice for 30 minutes. The samples were washed three times with DPBS containing 1% FBS and incubated with 2 μg/ml of streptavidin-phycoerythrin on ice for 30 minutes and then washed with DPBS. Samples were analyzed on a BD Fortessa LSR Cell Analyzer and further data analysis and gating were performed using FlowJo software (Treestar, Inc.).

[4] = system: VEGFR-2; test: mRNA level of VEGFR-2 on EPCs; type: cell-based; settings: EPCs treated with LXW7
Description: (§3) FIG. 15 presents graphs of mRNA levels of VEGFR-2 (A) and EGFR (B) on EPCs after treating with different concentrations of LXW7 for 48 h. *P<0.05 vs. Control, #P<0.05 vs. 25 nM (n=10 per group).

[5] = system: HCAECs; test: flow cytometry ligand-cell binding, HCAECs; design: species or system human; settings: biotinylated ligand 1 μM, streptavidin-phycoerythrin
Description: as §1, §2

[6] = system: EGFR; test: mRNA level of EGFR on EPCs; type: cell-based; settings: EPCs treated with LXW7
Description: as §3

For cGRGDdvc [LXW7], the “platelet adhesion on ligand treated surface” value [1] was “limited platelet adhesion”, the “phosphorylation of ERK1/2 in ECs” value [2] was “significantly increased” and the “binding affinity with platelets by flow cytometry” value [3] was “very low binding affinity with platelets”. The “VEGFR2 mRNA level” value [4] was “increases in VEGFR2 and EGFR mRNA levels were found to be dependent on treatment time”, the “binding affinity to HCAECs by flow cytometry” value [5] was “higher binding affinity with different types of EPCs/ECs than conventional GRGD peptide” and the “EGFR mRNA level” value [6] was “increases in VEGFR2 and EGFR mRNA levels were found to be dependent on treatment time”.
